Data reported in patent US20090233939A1, “TREATMENT OF AMM” (priority 2002, published 2009).

What was measured:
[1] = tested on: patient having a protuberant spleen; assay: Example 2: patient with massive protuberant spleen treated with PTK787; format: in vivo, human; details: 750 mg twice daily, after five days of therapy
Source text: After five days of therapy, the spleen had less than 10% of its original size.

[2] = tested on: patient with splenomegaly
[3] = target: Flt-1 (Homo sapiens, UniProt P17948); details: cited from earlier work
[4] = target: Flt-4 (Homo sapiens, UniProt P35916); details: cited from earlier work
[5] = tested on: other tyrosine kinase receptors, including c-Kit, bFGF and PDGF; details: cited from earlier work

Chain of Flt-4 (P35916 25-1363, species assumed): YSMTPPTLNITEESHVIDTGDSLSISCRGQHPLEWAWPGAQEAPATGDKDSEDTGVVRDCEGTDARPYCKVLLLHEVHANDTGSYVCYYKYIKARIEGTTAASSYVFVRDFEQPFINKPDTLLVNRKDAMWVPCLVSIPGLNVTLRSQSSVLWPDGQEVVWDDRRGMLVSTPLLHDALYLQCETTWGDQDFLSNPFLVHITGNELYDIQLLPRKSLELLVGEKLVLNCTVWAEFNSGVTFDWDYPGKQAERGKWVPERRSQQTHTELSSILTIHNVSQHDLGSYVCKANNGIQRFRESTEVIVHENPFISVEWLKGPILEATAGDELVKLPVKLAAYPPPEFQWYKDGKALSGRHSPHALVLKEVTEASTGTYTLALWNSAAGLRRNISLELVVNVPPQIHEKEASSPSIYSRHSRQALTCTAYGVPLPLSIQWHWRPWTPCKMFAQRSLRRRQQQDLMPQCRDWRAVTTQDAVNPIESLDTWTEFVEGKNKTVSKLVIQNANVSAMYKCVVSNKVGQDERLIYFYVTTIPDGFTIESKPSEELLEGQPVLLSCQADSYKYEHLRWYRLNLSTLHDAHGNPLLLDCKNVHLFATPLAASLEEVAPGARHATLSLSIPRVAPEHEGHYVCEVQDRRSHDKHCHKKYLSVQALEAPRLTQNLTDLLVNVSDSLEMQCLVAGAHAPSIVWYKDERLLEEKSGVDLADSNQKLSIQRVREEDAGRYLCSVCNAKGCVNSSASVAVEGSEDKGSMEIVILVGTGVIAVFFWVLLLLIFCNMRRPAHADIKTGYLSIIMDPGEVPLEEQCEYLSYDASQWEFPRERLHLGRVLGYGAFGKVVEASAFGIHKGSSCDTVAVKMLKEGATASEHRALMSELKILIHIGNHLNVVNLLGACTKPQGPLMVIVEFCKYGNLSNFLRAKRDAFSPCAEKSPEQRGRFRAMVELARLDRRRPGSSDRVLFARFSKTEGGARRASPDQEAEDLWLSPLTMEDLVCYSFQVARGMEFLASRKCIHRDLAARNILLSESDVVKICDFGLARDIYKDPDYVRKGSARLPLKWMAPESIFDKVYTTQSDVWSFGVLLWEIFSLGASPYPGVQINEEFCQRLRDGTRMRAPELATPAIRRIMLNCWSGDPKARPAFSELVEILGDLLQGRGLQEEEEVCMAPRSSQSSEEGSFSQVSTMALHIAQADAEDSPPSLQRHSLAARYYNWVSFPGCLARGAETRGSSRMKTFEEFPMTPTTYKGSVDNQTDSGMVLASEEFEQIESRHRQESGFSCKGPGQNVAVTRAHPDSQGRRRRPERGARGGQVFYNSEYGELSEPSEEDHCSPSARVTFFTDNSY
Chain of Flt-1 (P17948 27-1338, species assumed): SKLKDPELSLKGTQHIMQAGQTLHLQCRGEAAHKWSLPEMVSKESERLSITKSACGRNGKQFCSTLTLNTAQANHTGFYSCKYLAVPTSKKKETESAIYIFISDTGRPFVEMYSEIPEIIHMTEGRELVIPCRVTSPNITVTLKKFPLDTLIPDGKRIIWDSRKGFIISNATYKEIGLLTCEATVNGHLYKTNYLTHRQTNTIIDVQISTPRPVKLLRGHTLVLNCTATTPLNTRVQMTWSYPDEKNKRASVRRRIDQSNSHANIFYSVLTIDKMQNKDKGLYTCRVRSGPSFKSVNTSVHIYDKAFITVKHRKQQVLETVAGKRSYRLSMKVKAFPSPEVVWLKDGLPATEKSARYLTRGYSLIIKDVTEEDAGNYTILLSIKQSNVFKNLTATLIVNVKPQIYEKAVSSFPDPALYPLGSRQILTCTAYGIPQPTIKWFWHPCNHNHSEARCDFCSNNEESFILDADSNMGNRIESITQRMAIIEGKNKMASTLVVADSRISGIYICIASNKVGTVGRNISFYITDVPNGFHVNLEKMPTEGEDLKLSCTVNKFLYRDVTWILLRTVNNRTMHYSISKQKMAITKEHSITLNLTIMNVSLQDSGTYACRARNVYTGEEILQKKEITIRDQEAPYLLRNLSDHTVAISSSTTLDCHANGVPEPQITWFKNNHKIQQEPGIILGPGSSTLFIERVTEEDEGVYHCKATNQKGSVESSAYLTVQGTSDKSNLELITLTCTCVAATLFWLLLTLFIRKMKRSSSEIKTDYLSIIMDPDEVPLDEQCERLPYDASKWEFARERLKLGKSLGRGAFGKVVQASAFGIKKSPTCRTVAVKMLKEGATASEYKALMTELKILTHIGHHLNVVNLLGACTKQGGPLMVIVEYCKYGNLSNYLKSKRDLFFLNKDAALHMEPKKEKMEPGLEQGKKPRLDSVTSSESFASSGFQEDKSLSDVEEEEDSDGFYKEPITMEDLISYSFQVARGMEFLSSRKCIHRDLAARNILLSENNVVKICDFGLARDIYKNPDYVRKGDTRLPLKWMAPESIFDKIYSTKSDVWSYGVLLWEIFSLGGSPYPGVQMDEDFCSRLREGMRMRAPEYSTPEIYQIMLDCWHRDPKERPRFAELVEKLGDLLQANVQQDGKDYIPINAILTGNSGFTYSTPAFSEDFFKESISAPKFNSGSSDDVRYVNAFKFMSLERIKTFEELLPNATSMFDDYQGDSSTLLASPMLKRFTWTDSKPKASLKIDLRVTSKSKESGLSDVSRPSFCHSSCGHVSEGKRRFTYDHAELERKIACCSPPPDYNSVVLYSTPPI

In the case of PTK787, the spleen size [1] is reported as “less than 10 % of its original size”, the splenomegaly ([2]; 750 mg twice daily, first 14 days of chemotherapy) is reported as “decrease of splenomegaly” and the “white blood cells count” value ([2]; 750 mg twice daily, first 14 days, drop from 19,000) is reported as 14,000. The “spleen during interruption of therapy” value ([2]; during the interruption of therapy) was “the spleen began to increase again”, the “inhibition of Flt-1” value [3] was “can also inhibit” and the “inhibition of Flt-4” value [4] was “can also inhibit”. The “activity against other tyrosine kinase receptors” value [5] was “has activity”.
